In paper PMC9145754, “Novel Soloxolone Amides as Potent Anti-Glioblastoma Candidates: Design, Synthesis, In Silico Analysis and Biological Activities In Vitro and In Vivo” (Pharmaceuticals, 2022):
Read-outs that look alike come from different tables or passages of the source.

What was measured:
HeLa cells = experiment: MTT cytotoxicity assay, HeLa; type: cell-based; details: Homo sapiens, 24 h, read-out: IC50, Cervix, HeLa
Description: (§1) In the first step of the study, we analyzed the cytotoxicity of novel soloxolone derivatives 1–12 in a panel of tumor cells, including human cervical carcinoma HeLa, human duodenal carcinoma HuTu-80 and murine melanoma B16 cells, as well as human non-transformed hFF3 foreskin fibroblasts. The cells were treated with derivatives for 24 h and cell viability was evaluated by 3-(4,5-dimethylthiazol-2-yl)-2,5-diphenyltetrazolium bromide (MTT) assay. SM was used as the reference compound.
(§2) The cells in the exponential growth phase were seeded in quadruplicate in 96-well plates at a density of 1 × 10^4 cells/well for HeLa, U87, U118, KELLY and Neuro2a cells; 1.5 × 10^4 cells/well for HuTu-80 cells; 2 × 10^4 cells/well for B16 cells; and 7 × 10^3 cells/well for hFF3 fibroblasts. Cells were incubated under standard conditions overnight followed by their treatment with the investigated compounds (1–20 µM) for 24 h. Then, 10 µL of MTT solution was added to the cells to a final concentration of 0.5 mg/mL and plates were placed under standard conditions for 3 h followed by an aspiration of MTT-containing medium and a dissolution of formazan crystals with 100 µL of DMSO. The absorbance of each well was read at test and reference wavelengths of 570 and 620 nm, respectively, on a Multiscan RC plate reader (Thermo LabSystems, Helsinki, Finland).

HuTu-80 cells = experiment: MTT cytotoxicity assay, HuTu-80; type: cell-based; details: Homo sapiens, HuTu80, 24 h, read-out: IC50, Duodenum, HuTu-80
Description: as §1, §2

B16 cells = experiment: MTT cytotoxicity assay, B16; type: cell-based, murine; details: Mus musculus, 24 h, read-out: IC50, Melanoma, B16
Description: as §1, §2

[1] = system: hFF3 foreskin fibroblasts; experiment: MTT cytotoxicity assay, hFF3 fibroblasts; type: cell-based, human
Description: as §1, §2

U87 cells = experiment: MTT cytotoxicity assay, U87; type: cell-based; details: Homo sapiens, U-87 MG, 24 h, read-out: IC50, Glioblastoma, U87
Description: (§3) To evaluate the antitumor activity of the synthesized soloxolone amides in brain tumor cells, the cytotoxicity of compounds 4–12, predicted as BBB-permeable (Figure 3), was further analyzed in human glioblastoma U87 and U118 cells, as well as human neuroblastoma KELLY and murine neuroblastoma Neuro2a cells.
as §2

U118 cells = experiment: MTT cytotoxicity assay, U118; type: cell-based; details: Homo sapiens, 24 h, read-out: IC50, Glioblastoma, U118
Description: as §3, §2

KELLY cells = experiment: MTT cytotoxicity assay, KELLY; type: cell-based; details: Homo sapiens, 24 h, read-out: IC50, Neuroblastoma, KELLY
Description: as §3, §2

Neuro2a cells = experiment: MTT cytotoxicity assay, Neuro2a; type: cell-based, murine; details: Mus musculus, N2a, 24 h, read-out: IC50, Neuroblastoma, Neuro2a
Description: as §3, §2

panel of tumor cells = experiment: MTT cytotoxicity, values averaged over the cell panel; type: cell-based
Description: as §1, §2

brain tumor cells = experiment: MTT cytotoxicity, values summarised over brain tumor cells; type: cell-based; details: U87, U118, KELLY, Neuro2a; MTT 24 h; read-out: IC50 (median), brain tumor cells
Description: as §3, §2

[2] = aryl-containing amides versus SM, tumor cells of Table 1, MTT 24 h, read-out: average IC50 against tumor cells
[3] = average over Table 1 cell lines (worded 'in a panel of tumor cells'), MTT 24 h, read-out: average IC50

Compound	melting point	IC50 (HeLa cells) [nM]	IC50 (HuTu-80 cells) [nM]	IC50 (B16 cells) [nM]	IC50 ([1]; Homo sapiens, HFF-3, 24 h) [nM]	IC50 (U87 cells) [nM]	IC50 (U118 cells) [nM]	IC50 (KELLY cells) [nM]	IC50 (Neuro2a cells) [nM]	IC50 (panel of tumor cells; [2]) [nM]	IC50 (panel of tumor cells; [3]) [nM]	IC50 (panel of tumor cells; conclusions, soloxolone amides versus SM, read-out: average IC50 in a panel of tumor cell lines) [nM]	IC50 (brain tumor cells) [nM]	IC50 ([1]; 24 h) [nM]
COC(=O)[C@@]1(C)CC[C@]2(C)CC[C@]3(C)[C@H](C(=O)C=C4[C@@]5(C)C=C(C#N)C(=O)C(C)(C)C5CC[C@]43C)[C@@H]2C1 (stereo partly shown) [SM, soloxolone methyl, reference compound]	–	1300 ± 100	1500 ± 100	1600 ± 100	4000 ± 400	1800 ± 100	1900 ± 100	1600 ± 100	1400 ± 100	1500	2100	1600	1400	–
CC1(C)C(=O)C(C#N)=C[C@]2(C)C3=CC(=O)[C@@H]4[C@@H]5C[C@@](C)(C(=O)O)CC[C@]5(C)CC[C@@]4(C)[C@]3(C)CCC12 (stereo partly shown) [compound 1, 2-Cyano-3,12-dioxo-18βH-olean-9(11),1(2)-dien-30-oic acid]	–	9900 ± 700	2500 ± 300	4200 ± 300	16000 ± 1900	–	–	–	–	–	8200	–	–	–
CN(C)CCNC(=O)[C@@]1(C)CC[C@]2(C)CC[C@]3(C)[C@H](C(=O)C=C4[C@@]5(C)C=C(C#N)C(=O)C(C)(C)C5CC[C@]43C)[C@@H]2C1 (stereo partly shown) [compound 6, N-(2′-(Dimethylamino)ethyl)-2-Cyano-3,12-dioxo-18βH-olean-9(11),1(2)-dien-30-amide]	–	2600 ± 500	2100 ± 500	3300 ± 500	4100 ± 300	4600 ± 400	3800 ± 500	1600 ± 100	2800 ± 400	–	3000	–	–	–
CN(C)CCCNC(=O)[C@@]1(C)CC[C@]2(C)CC[C@]3(C)[C@H](C(=O)C=C4[C@@]5(C)C=C(C#N)C(=O)C(C)(C)C5CC[C@]43C)[C@@H]2C1 (stereo partly shown) [compound 7, N-(3′-(Dimethylamino)propyl)-2-cyano-3,12-dioxo-18βH-olean-9(11),1(2)-dien-30-amide]	–	4900 ± 800	2000 ± 700	3300 ± 800	7700 ± 1100	5300 ± 700	5200 ± 1300	1800 ± 300	3700 ± 600	–	4500	–	–	–
Cc1ccc(NC(=O)[C@@]2(C)CC[C@]3(C)CC[C@]4(C)[C@H](C(=O)C=C5[C@@]6(C)C=C(C#N)C(=O)C(C)(C)C6CC[C@]54C)[C@@H]3C2)cc1 (stereo partly shown) [compound 9, N-p-Tolyl-2-cyano-3,12-dioxo-18βH-olean-9(11),1(2)-dien-30-amide]	–	1600 ± 100	1500 ± 100	2100 ± 300	3600 ± 300	2000 ± 200	1900 ± 200	1400 ± 100	1600 ± 100	1500 to 1800	–	–	–	–
CC1(C)C(=O)C(C#N)=C[C@]2(C)C3=CC(=O)[C@@H]4[C@@H]5C[C@@](C)(C(=O)Nc6cccnc6)CC[C@]5(C)CC[C@@]4(C)[C@]3(C)CCC12 (stereo partly shown) [compound 10, N-(Pyridin-3-yl)-2-Cyano-3,12-dioxo-18βH-olean-9(11),1(2)-dien-30-amide]	250 °C	1800 ± 100	1500 ± 200	1700 ± 100	1600 ± 100	2500 ± 200	2100 ± 200	1500 ± 100	1400 ± 100	1500 to 1800	–	–	–	–

Continued, in another order:

melting point	Compound	IC50 (HeLa cells) [nM]	IC50 (HuTu-80 cells) [nM]	IC50 (B16 cells) [nM]	IC50 ([1]; Homo sapiens, HFF-3, 24 h) [nM]	IC50 (U87 cells) [nM]	IC50 (U118 cells) [nM]	IC50 (KELLY cells) [nM]	IC50 (Neuro2a cells) [nM]	IC50 (panel of tumor cells; [2]) [nM]	IC50 (panel of tumor cells; [3]) [nM]	IC50 (panel of tumor cells; conclusions, soloxolone amides versus SM, read-out: average IC50 in a panel of tumor cell lines) [nM]	IC50 (brain tumor cells) [nM]	IC50 ([1]; 24 h) [nM]
152.7 °C (dec.)	CC1(C)C(=O)C(C#N)=C[C@]2(C)C3=CC(=O)[C@@H]4[C@@H]5C[C@@](C)(C(=O)NCCO)CC[C@]5(C)CC[C@@]4(C)[C@]3(C)CCC12 (stereo partly shown) [compound 2, N-(2′-Hydroxyethyl)-2-cyano-3,12-dioxo-18βH-olean-9(11),1(2)-dien-30-amide]	1500 ± 100	1400 ± 100	3300 ± 200	1200 ± 100	–	–	–	–	–	1900	–	–	–
150.8 °C (dec.)	CC1(C)C(=O)C(C#N)=C[C@]2(C)C3=CC(=O)[C@@H]4[C@@H]5C[C@@](C)(C(=O)NCCCO)CC[C@]5(C)CC[C@@]4(C)[C@]3(C)CCC12 (stereo partly shown) [compound 3, N-(3′-Hydroxypropyl)-2-cyano-3,12-dioxo-18βH-olean-9(11),1(2)-dien-30-amide]	3500 ± 200	1700 ± 200	1400 ± 100	6800 ± 1300	–	–	–	–	–	3400	–	–	–
115.7 °C (dec.)	CC1(C)C(=O)C(C#N)=C[C@]2(C)C3=CC(=O)[C@@H]4[C@@H]5C[C@@](C)(C(=O)NCCCCCO)CC[C@]5(C)CC[C@@]4(C)[C@]3(C)CCC12 (stereo partly shown) [compound 4, N-(5′-Hydroxypentyl)-2-cyano-3,12-dioxo-18βH-olean-9(11),1(2)-dien-30-amide]	2300 ± 400	1300 ± 100	1500 ± 100	3600 ± 300	2000 ± 100	3100 ± 500	1500 ± 100	1900 ± 200	–	2200	–	–	–
115.9 °C (dec.)	COCCNC(=O)[C@@]1(C)CC[C@]2(C)CC[C@]3(C)[C@H](C(=O)C=C4[C@@]5(C)C=C(C#N)C(=O)C(C)(C)C5CC[C@]43C)[C@@H]2C1 (stereo partly shown) [compound 5, N-(2′-Methoxyethyl)-2-cyano-3,12-dioxo-18βH-olean-9(11),1(2)-dien-30-amide]	1500 ± 200	2300 ± 200	1600 ± 100	12800	5500 ± 1100	7000 ± 700	1600 ± 100	2700 ± 300	–	–	–	–	12900 ± 800
283 °C (dec.)	CC1(C)C(=O)C(C#N)=C[C@]2(C)C3=CC(=O)[C@@H]4[C@@H]5C[C@@](C)(C(=O)Nc6ccc(Br)cc6)CC[C@]5(C)CC[C@@]4(C)[C@]3(C)CCC12 (stereo partly shown) [compound 8, N-(4′-Bromophenyl)-2-Cyano-3,12-dioxo-18βH-olean-9(11),1(2)-dien-30-amide]	1500 ± 100	1400 ± 100	1900 ± 100	1800 ± 100	1700 ± 100	2000 ± 100	1400 ± 100	1600 ± 100	1500 to 1800	–	–	–	–
139 °C (dec.)	CC(C)(C)c1cc(CCCNC(=O)[C@@]2(C)CC[C@]3(C)CC[C@]4(C)[C@H](C(=O)C=C5[C@@]6(C)C=C(C#N)C(=O)C(C)(C)C6CC[C@]54C)[C@@H]3C2)cc(C(C)(C)C)c1O (stereo partly shown) [compound 11, N-(3′-(3′’,5′’-di-tert-butyl-4′’-hydroxyphenyl)propyl)-2-Cyano-3,12-dioxo-18βH-olean-9(11),1(2)-dien-30-amide]	2500 ± 100	1500 ± 100	1400 ± 100	1300 ± 200	1500 ± 100	1900 ± 100	1800 ± 200	1400 ± 100	1500 to 1800	–	–	–	–
